Source: patent US9453014B2, “Cyclic amide derivatives as inhibitors of 11-β-hydroxysteroid dehydrogenase and uses thereof” (CONNEXIOS LIFE SCIENCES PVT. LTD., priority 2011, dated 2016)

How the values were obtained:
[1] = phase IIa trial, type 2 diabetes, 28-days; cited from earlier work
[2] = molecular target: T1, human full length HSD11 β 1 (Homo sapiens, UniProt P28845); assay: In Vitro HSD11β1 Inhibition Assay; format: cell-based; details: CHO cells transiently expressing human HSD11β1; 200 nM cortisone+500 uM NADPH overnight; cortisone to cortisol by LC/MS-MS; read-out: 11βHSD1 (IC50)
T1 construct: transient expression of human full length HSD11 β 1 expression vector; host or cells: CHO cells (transient transfection)
T1 sequence (P28845 whole entry): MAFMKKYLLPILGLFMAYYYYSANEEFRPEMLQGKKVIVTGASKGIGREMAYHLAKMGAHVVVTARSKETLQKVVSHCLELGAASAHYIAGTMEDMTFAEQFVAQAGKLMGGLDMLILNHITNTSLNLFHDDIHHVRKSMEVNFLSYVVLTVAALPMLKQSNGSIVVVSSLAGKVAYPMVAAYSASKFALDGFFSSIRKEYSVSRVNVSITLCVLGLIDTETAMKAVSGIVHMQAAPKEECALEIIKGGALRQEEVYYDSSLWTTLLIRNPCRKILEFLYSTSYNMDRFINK
How it was run: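 CHO cells transiently transfected with human full-length HSD11β1 were re-seeded after 24 h and, 24 h later, incubated overnight with 200 nM cortisone plus 500 uM NADPH and inhibitor. Cortisone-to-cortisol conversion was measured by LC/MS-MS. IC50 from an 8-point log concentration–inhibition curve.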

Row | SMILES | safety and tolerability [1] | IC50 [2]
1 | CNC(=O)c1ccc(-c2ccc(C3(C(=O)N4CC[C@@]5(C4)OC(=O)c4ccccc45)CC3)cc2)cn1 [INCB13739] | safe and well tolerated without any serious side effects and hypoglycemia | 
2 | CC(CC(=O)N1CCCC2C(C(=O)NCC(=O)O)CCCC21)c1c[nH]c2cccc(C3CC3)c12 (stereo not shown) [Compound 247, N-({1-[3-(4-cyclopropyl-1H-indol-3-yl)butanoyl]decahydroquinolin-5-yl}carbonyl)glycine] |  | > 0.25 µM
3 | O=C(O)C1CCC2CCCCC2N1C(=O)CC(c1ccccc1)c1c[nH]c2cc(F)ccc12 (stereo not shown) [Example 174, 1-[3-(6-fluoro-1H-indol-3-yl)-3-phenylpropanoyl]decahydroquinoline-2-carboxylic acid] |  | > 0.25 µM
4 | O=C(CCc1c[nH]c2ccccc12)N1CCCCC2CCCCC21 (stereo not shown) [Compound 54, 1-(decahydro-1H-1-benzazepin-1-yl)-3-(1H-indol-3-yl)propan-1-one] |  | > 0.25 µM
